Test [1] concerns the target T1, CETP (Homo sapiens, UniProt P11597).
T1 sequence (P11597 18-493): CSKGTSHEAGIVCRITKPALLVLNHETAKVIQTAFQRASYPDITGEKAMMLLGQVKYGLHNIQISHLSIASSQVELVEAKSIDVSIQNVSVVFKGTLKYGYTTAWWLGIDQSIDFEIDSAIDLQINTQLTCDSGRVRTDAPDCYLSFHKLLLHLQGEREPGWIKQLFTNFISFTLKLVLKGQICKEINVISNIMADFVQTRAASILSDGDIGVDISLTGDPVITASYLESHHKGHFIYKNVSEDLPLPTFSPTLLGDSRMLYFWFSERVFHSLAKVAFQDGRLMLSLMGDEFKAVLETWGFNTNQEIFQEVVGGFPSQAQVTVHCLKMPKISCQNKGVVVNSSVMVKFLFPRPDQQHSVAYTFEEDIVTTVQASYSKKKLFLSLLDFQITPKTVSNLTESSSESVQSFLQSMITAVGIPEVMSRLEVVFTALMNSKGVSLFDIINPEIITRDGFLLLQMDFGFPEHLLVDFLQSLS
Nature of the test: Assay of CETP Inhibition using Purified Components (Reconstituted Buffer Assay). Format: biochemical. Further details: made in house; host or cells: CHO cells (serum-free conditioned medium). The essentials: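 Purified human recombinant CETP from transfected CHO cells was incubated with [^3H]CE-labeled HDL donor and LDL acceptor in Tris pH 7.4/NaCl/EDTA/1% BSA buffer for 2 h at 37 °C. LDL was then precipitated with dextran sulfate/MgCl2, filtered, and counted by liquid scintillation to give IC50 for CE transfer.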

In test [2] the target is T1, CETP. In words: Assay of CETP Inhibition in Human Plasma. Format: biochemical. Conditions: Inhibition of CETP activity in human plasma assay; transfer of [3H]CE from HDL to VLDL and LDL; read-out: IC50. The arrangement: Blood was obtained from healthy volunteers, recruited from the personnel of Monsanto Company; from tissue; host or cells: human EDTA plasma pool from healthy volunteers. The essentials:
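In human EDTA plasma with [3H]CE-HDL, compounds in 1% DMSO (4 μL in 396 μL) were incubated 4 h at 37° C. IC50 was taken from % control versus concentration.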

[3] abbreviates: Inhibition of CETP activity in reconstituted buffer assay, transfer of [3H]CE from HDL to LDL, read-out: IC50.

Each structure is given as a SMILES string. pIC50: −log10 of the molar value.

Broadly, the pIC50 is −log10 of the IC50, conventionally taken in molar units.

As for `OC(CN(Cc1cccc(OC(F)(F)F)c1)c1ccc2c(c1)OCCO2)C(F)(F)F` (centres unmarked) [Example 131], the pIC50 is 5.00 at CETP [1] (setting [3]) and less than 4.00 at CETP [2].
As for `OC(COC(F)(F)C(F)F)CN(Cc1cccc(OC(F)(F)F)c1)Cc1cccc(OC(F)(F)F)c1` (centres unmarked) [Example 208], the pIC50 on CETP [1] (setting [3]) is 5.22; on CETP [2], less than 4.00.
Consider `CCN(c1cccc(C)c1)c1cccc(N(Cc2cccc(OC(F)(F)C(F)F)c2)CC(O)C(F)(F)F)c1` (centres unmarked) [Example 312], for which the pIC50 at CETP [1] (setting [3]) is 5.74; at CETP [2], 4.19.
For `CCc1cc(Oc2cccc(N(Cc3cccc(C(F)(F)C(F)(F)F)c3)CC(O)C(F)(F)F)c2)ccc1Cl` (centres unmarked) [Example 660, 3-[(4-chloro-3-ethylphenoxy)phenyl[[3-(pentafluoroethyl)phenyl]methyl]-amino]-1,1,1-trifluoro-2-propanol.], in that order: 7.40 and 5.96.
On to `CC(C)Sc1cccc(N(Cc2cccc(OC(F)(F)C(F)F)c2)CC(O)C(F)(F)F)c1` (centres unmarked) [Example 473, 3-[[3-[(1-methylethyl)thio]phenyl][[3-(1,1,2,2-tetrafluoroethoxy)phenyl]-methyl]amino]-1,1,1-trifluoro-2-propanol], for which the pIC50 was 6.43 at CETP [1] (setting [3]) and 4.80 on CETP [2].
Consider `OC(CN(Cc1ccc(C(F)(F)F)cc1)c1cccc(OC(F)(F)F)c1)C(F)(F)F` (centres unmarked) [Example 140], for which the pIC50 was 5.80 on CETP [1] (setting [3]) and 4.10 at CETP [2].
Taken in the same sequence, the figures for `OC(CN(Cc1cccc(OC(F)(F)F)c1)c1ccc2ccccc2c1)C(F)(F)F` (centres unmarked) [Example 76] were 5.22 and less than 3.70.
`CC(=O)OC(CN(Cc1cccc(C(F)(F)F)c1)c1cccc(F)c1)C(F)(F)F` (centres unmarked) [Example 664, 2,2,2-trifluoro-1-[[(3-fluorophenyl)[3-(trifluoromethyl)phenyl]-methyl]amino]methyl]ethyl Acetate]: the pIC50 against CETP [1] is 4.15; on CETP [2], less than 3.70.
For `OC(CN(Cc1cccc(OC(F)(F)C(F)F)c1)c1cccc(Oc2ccc(Cl)c(F)c2)c1)C(F)(F)F` (centres unmarked) [Example 246], the pIC50 is 6.24 on CETP [1] (setting [3]) and 4.89 on CETP [2].
As for `OC(CN(Cc1cccc(Oc2cccc(C(F)(F)F)c2)c1)c1cccc(Oc2ccccc2)c1)C(F)(F)F` (centres unmarked) [Example 115], the pIC50 on CETP [1] (setting [3]) is 5.52; at CETP [2], less than 4.00.
Taken in the same sequence, the figures for `OC(CN(Cc1cccc(OC(F)(F)C(F)F)c1)c1cccc(OCc2cccc(Cl)c2F)c1)C(F)(F)F` (centres unmarked) [Example 393] were 6.09 and 5.30.
For `OC(CN(Cc1cccc(OC(F)(F)F)c1)c1cccc(Oc2ccc(F)cc2)c1)C(F)(F)F` (centres unmarked) [Example 166], in that order: 6.11 and 4.52.
For `OC(CN(Cc1cccc(OC(F)(F)C(F)F)c1)c1cccc(N2CCCCC2)c1)C(F)(F)F` (centres unmarked) [compound 315], in that order: 5.68 and less than 4.00.
On to `OC(CN(Cc1ccc(C(F)(F)F)cc1)c1ccc(-c2ccccc2)cc1)C(F)(F)F` (centres unmarked) [Example 141], for which the pIC50 is 5.30 at CETP [1] (setting [3]) and less than 4.00 on CETP [2].
Taken in the same sequence, the figures for `COC(=O)C=CCOc1cccc(N(Cc2cccc(OC(F)(F)C(F)F)c2)CC(O)C(F)(F)F)c1` (centres unmarked) [Example 499] were 6.08 and 4.47.
Regarding `OC(CN(Cc1cccc(OC(F)(F)F)c1)c1cccc(OCc2ccccc2)c1)C(F)(F)F` (centres unmarked) [Example 126], the pIC50 at CETP [1] (setting [3]) was 5.40; on CETP [2], 4.35.
For the molecule `OC(CN(Cc1ccc(C(F)(F)F)cc1)c1ccc(F)c(C(F)(F)F)c1)C(F)(F)F` (centres unmarked) [Example 75], the pIC50 on CETP [1] (setting [3]) was 5.15; at CETP [2], 3.70.
Taken in the same sequence, the figures for `Cc1cc(Oc2cccc(N(Cc3cccc(OC(F)(F)C(F)F)c3)CC(O)C(F)(F)F)c2)cc(C)c1C` (centres unmarked) [Example 247] were 6.43 and 4.77.
Taken in the same sequence, the figures for `OC(CN(Cc1cccc(OC(F)(F)F)c1)c1ccc2c(c1)OC(F)(F)C(F)(F)O2)C(F)(F)F` (centres unmarked) [Example 89] were 5.64 and 4.22.
For `CCCc1ccc(Nc2cccc(N(Cc3cccc(OC(F)(F)C(F)F)c3)CC(O)C(F)(F)F)c2)cc1` (centres unmarked) [Example 299], in that order: 5.64 and less than 4.00.
As for `OC(CN(Cc1cccc(OC(F)(F)C(F)F)c1)c1cccc(Oc2cncc(Cl)c2)c1)C(F)(F)F` (centres unmarked) [Example 287], the pIC50 at CETP [1] (setting [3]) was 6.30; on CETP [2], 4.66.
For `OC(CN(Cc1cccc(OC(F)(F)C(F)F)c1)c1cccc(OCc2ccc(C(F)(F)F)cc2C(F)(F)F)c1)C(F)(F)F` (centres unmarked) [Example 396], in that order: 6.07 and 5.00.
For the molecule `OC(CN(Cc1cccc(OC(F)(F)F)c1)c1ccc2c(c1)Cc1cc(Br)ccc1-2)C(F)(F)F` (centres unmarked) [Example 204], the negative-log IC50 (pIC50) on CETP [1] (setting [3]) is 5.46; on CETP [2] it was less than 4.00.
As to `N#Cc1ccc(Nc2cccc(N(Cc3cccc(OC(F)(F)C(F)F)c3)CC(O)C(F)(F)F)c2)cc1` (centres unmarked) [Example 297], the pIC50 was 5.36 at CETP [1] (setting [3]) and less than 4.00 at CETP [2].
Take `CC(Oc1cccc(N(Cc2cccc(OC(F)(F)C(F)F)c2)CC(O)C(F)(F)F)c1)c1ccccc1` (centres unmarked) [Example 429]: the pIC50 was 6.36 on CETP [1] (setting [3]) and 5.36 at CETP [2].
Taken in the same sequence, the figures for `OC(CN(Cc1cccc(OC(F)(F)C(F)F)c1)c1cccc(Nc2ccccc2)c1)C(F)(F)F` (centres unmarked) [Example 294] were 6.06 and 4.52.
Taken in the same sequence, the figures for `COc1ccc(-c2cccc(N(Cc3cccc(OC(F)(F)C(F)F)c3)CC(O)C(F)(F)F)c2)cc1` (centres unmarked) [Example 558] were 6.16 and 4.42.
For the molecule `OC(CN(Cc1cccc(OC(F)(F)F)c1)c1cccc(Br)c1)C(F)(F)F` (centres unmarked) [Example 36], the pIC50 is 5.40 at CETP [1] (setting [3]) and less than 3.70 on CETP [2].

These data come from US6723753B2, “Substituted n-benzyl-n-phenyl aminoalcohol compounds useful for inhibiting cholesteryl ester transfer protein activity” (Pharmacia Corporation, priority 2002, dated 2004).
